Results as given in patent US8658190B2 (priority 2005, dated 2014).
Read-outs that look alike come from different tables or passages of the source.

How the values were obtained:
[1] = test system: mycobacteria; assay: mycobactericidal / tuberculocidal activity (exposure time); format: cell-based
[2] = stability of glutaraldehyde concentration in solution; format: physicochemical; conditions: composition buffered to about pH 7.3 to 7.9
[3] = test system: mycobacteria; conditions: 25 C, background statement; cited from earlier work
[4] = test system: bacterial spores; conditions: background statement, cited from earlier work

With `CCO` [Alcohol] the tuberculocidal activity ([1]; alcohol alone, 5% to 20% by volume) was “not tuberculocidal”.
For `O=CCCCC=O` [Glutaraldehyde], the “time glutaraldehyde is stable during use and re-use” value [2] is given as “about 14 days”, the “time to kill 6 log 10 of mycobacteria” value [3] is given as “about 45 min” and the “time to kill bacterial spores” value ([4]; 25 C) is given as “about 10.0 hrs”. The tuberculocidal activity ([1]; 2.0% glutaraldehyde alone, 20° C., exposure time of 10 min) was “nor is 2.0% glutaraldehyde tuberculocidal”.
In the case of `O=Cc1ccccc1C=O` [Ortho-phthaladehyde, ortho-phthalaldehyde], the “time to kill bacterial spores” value ([4]; temperature not given) is given as “about 32 hrs”.
